Source: ChEMBL document CHEMBL5338769, “Discovery of Norisoboldine Analogue III11 as a Novel and Potent Aryl Hydrocarbon Receptor Agonist for the Treatment of Ulcerative Colitis” (J Med Chem, 2023)
Activity calls are given as the source filed them. The calls are words filed in the database; no cut-off is given here.

Experiments:
[1] = molecular target: T1, Aryl hydrocarbon receptor (Mus musculus, UniProt P30561); assay: Activation of AhR transcription in C57BL/6 mouse naive T cells assessed as increase in CYP1A1 mRNA expression by measuring fold change at 3 uM by qRT-PCR analysis relative to control; type: cell-based; conditions: T-cell, read-out: FC
T1 sequence (P30561 whole entry): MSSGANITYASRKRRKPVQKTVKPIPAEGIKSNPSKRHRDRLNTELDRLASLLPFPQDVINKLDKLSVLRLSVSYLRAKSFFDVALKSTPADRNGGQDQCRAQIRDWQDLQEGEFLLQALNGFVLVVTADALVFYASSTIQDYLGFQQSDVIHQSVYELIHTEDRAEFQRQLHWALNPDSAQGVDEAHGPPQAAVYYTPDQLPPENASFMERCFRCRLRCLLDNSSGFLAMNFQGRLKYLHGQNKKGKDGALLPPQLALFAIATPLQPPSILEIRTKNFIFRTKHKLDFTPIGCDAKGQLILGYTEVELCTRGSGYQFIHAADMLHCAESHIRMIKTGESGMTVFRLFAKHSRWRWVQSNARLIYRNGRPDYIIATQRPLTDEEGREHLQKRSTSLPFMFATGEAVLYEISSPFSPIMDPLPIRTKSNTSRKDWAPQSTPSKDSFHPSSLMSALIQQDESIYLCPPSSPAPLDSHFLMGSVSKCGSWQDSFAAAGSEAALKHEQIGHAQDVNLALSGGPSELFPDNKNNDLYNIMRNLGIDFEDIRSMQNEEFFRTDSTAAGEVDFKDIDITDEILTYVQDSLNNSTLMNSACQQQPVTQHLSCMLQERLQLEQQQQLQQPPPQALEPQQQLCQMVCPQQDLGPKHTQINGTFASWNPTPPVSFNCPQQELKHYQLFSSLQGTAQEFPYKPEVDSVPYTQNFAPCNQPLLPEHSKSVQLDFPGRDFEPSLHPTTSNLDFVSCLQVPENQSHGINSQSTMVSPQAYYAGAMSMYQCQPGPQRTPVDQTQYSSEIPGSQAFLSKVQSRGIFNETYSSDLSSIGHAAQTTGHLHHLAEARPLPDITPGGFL

EL4 = assay: Cytotoxicity against mouse EL4 cells assessed as inhibition of cell proliferation incubated for 72 hrs by MTT assay; type: functional, cell-based; conditions: EL4, 72 h
Regulatory T cell = assay: Induction of cell differentiation in C57BL/6 mouse naive regulatory T cells at 1 uM incubated for 72 hrs by flow cytometric analysis; type: functional, cell-based
[2] = AUC(0 to infinity) in Sprague-Dawley rat at 30 mg/kg, po measured upto 1440 min by LC-MS/MS analysis; type: ADME, organism-based; parameters: time < 1440 min, dose 30 mg/kg, route po; conditions: in vivo
Mus musculus [3] = assay: Anti-colitis activity against DSS-induced ulcerative colitis C57BL/6 mouse model assessed as amelioration of inflammation severity in colon at 10 to 20 mg/kg, po administered once a day for 10 days by H&E staining based histopathological analysis; type: functional, organism-based; conditions: dose 10-20 mg/kg, time 10.0 day
[4] = Induction of cell differentiation in C57BL/6 mouse naive regulatory T cells assessed as increase in cell frequency at 1 uM incubated for 72 hrs by flow cytometric analysis (reference value: 24.9%); type: functional
[5] = MRT in Sprague-Dawley rat at 30 mg/kg, po measured upto 1440 min by LC-MS/MS analysis; type: ADME, organism-based; conditions: in vivo
[6] = Protein binding in rat plasma at 10.74 ug/ml of total concentration measured after 12 hrs by ultrafiltration based HPLC analysis; type: ADME, cell-free; conditions: at 10.74 µg/mL, read-out: PPB (converted)
[7] = Protein binding in rat plasma at 20.13 ug/ml of total concentration measured after 12 hrs by ultrafiltration based HPLC analysis; type: ADME, cell-free; conditions: at 20.13 µg/mL, read-out: PPB
Mus musculus [8] = assay: Anti-colitis activity against DSS-induced ulcerative colitis C57BL/6 mouse model assessed as amelioration of mucosal architecture score by measuring granulation in colon at 10 to 20 mg/kg, po administered once a day for 10 days by H&E staining based histopathological analysis; type: functional, organism-based; conditions: dose 10-20 mg/kg, time 10.0 day
Mus musculus [9] = assay: Anti-colitis activity against DSS-induced ulcerative colitis C57BL/6 mouse model assessed as increase in IL-10 mRNA level by measuring fold change at 10 mg/kg, po administered once a day for 10 days by qRT-PCR analysis; type: functional; conditions: time 10 day
Mus musculus [10] = assay: Anti-colitis activity against DSS-induced ulcerative colitis C57BL/6 mouse model assessed as recovery of colon length at 20 mg/kg, po administered once a day for 10 days; type: functional, organism-based; conditions: time 10.0 day
[11] = molecular target: T1, Aryl hydrocarbon receptor; assay: Activation of AhR transcription in C57BL/6 mouse naive T cells assessed as increase in AhRR mRNA expression at 1 to 3 uM by qRT-PCR analysis; type: cell-based; conditions: t cell, dose 1-3 µM
[12] = Protein binding in rat plasma at 21.67 ug/ml of total concentration measured after 12 hrs by ultrafiltration based HPLC analysis; type: ADME, cell-free; conditions: at 21.67 µg/mL, read-out: PPB (converted)
[13] = Protein binding in rat plasma at 37.38 ug/ml of total concentration measured after 12 hrs by ultrafiltration based HPLC analysis; type: ADME, cell-free; conditions: at 37.38 µg/mL, read-out: PPB (converted)
[14] = Unbound drug concentration in rat plasma at 48.02 ug/ml of total concentration measured after 12 hrs by ultrafiltration based HPLC analysis; type: ADME, cell-free; conditions: dose 48.02 µg/ml
Mus musculus [15] = assay: Anti-colitis activity in DSS-induced ulcerative colitis C57BL/6 mouse model assessed as CD4+CD25+Foxp3+ Treg cell percentage in spleen at 20 mg/kg, po administered once a day for 10 days by flow cytometric analysis (reference value: 3.3%); type: functional; conditions: time 10 day
[16] = Cmax in Sprague-Dawley rat at 3 mg/kg, iv measured at 120 min by LC-MS/MS analysis; type: ADME, organism-based; parameters: time 120 min, dose 3 mg/kg, route iv; conditions: in vivo
[17] = AUC(0 to infinity) in Sprague-Dawley rat at 3 mg/kg, iv measured upto 1440 min by LC-MS/MS analysis; type: ADME, organism-based; parameters: dose 3 mg/kg, time < 1440 min, route iv; conditions: in vivo
[18] = Induction of cell differentiation in C57BL/6 mouse naive regulatory T cells assessed as increase in cell frequency at 10 uM incubated for 72 hrs by flow cytometric analysis (reference value: 24.9%); type: functional
Mus musculus [19] = assay: Anti-colitis activity in DSS-induced ulcerative colitis C57BL/6 mouse model assessed as decrease in IL-17 expression at 20 mg/kg, po administered once a day for 10 days by qRT-PCR analysis; type: functional; parameters: scale not given: the % may be the effect or the level left; conditions: time 10 day
[20] = Apparent oral clearance in Sprague-Dawley rat at 30 mg/kg measured upto 1440 min by LC-MS/MS analysis; type: ADME, organism-based; conditions: in vivo, 24 h
Mus musculus [21] = assay: Anti-colitis activity against DSS-induced ulcerative colitis C57BL/6 mouse model assessed as decrease in disease activity index score at 20 mg/kg, po administered once a day for 10 days; type: functional, organism-based; conditions: time 10.0 day
[22] = Half-life in Sprague-Dawley rat at 3 mg/kg, iv measured upto 1440 min by LC-MS/MS analysis; type: ADME, organism-based; conditions: in vivo
[23] = Upregulation of GATA3 expression level in DSS-induced ulcerative colitis C57BL/6 mouse model assessed as fold change at 20 mg/kg, po administered once a day for 10 days by qRT-PCR analysis; type: functional; conditions: time 10 day

Q: With `COc1cc2c3c(c1)-c1ccc(O)cc1CC3NCC2` (stereo not given) as the compound, how does the fold induction at 3 µM [1] read?
A: 4.6

Q: What about the IC50 (EL4) of the same compound?
A: 28 µM

Q: What about the Activity (Regulatory T cell) of the same compound?
A: Active

Q: What about the AUC(0-inf) [2] of the same compound?
A: 8520 ng·h/mL

Q: What about the Activity (Mus musculus [3]) of the same compound?
A: Active

Q: What about the Activity [4] of the same compound?
A: 29.9%

Q: And the MRT [5]?
A: 7.27 h

Q: What about the fraction unbound at 12 h, 10.74 ug/ml [6] of the same compound?
A: 0.134

Q: What about the fraction unbound at 12 h, 20.13 ug/ml [7] of the same compound?
A: 0.498

Q: What about the Activity (Mus musculus [8]) of the same compound?
A: Active

Q: And the “fold change (FC)” value (Mus musculus [9])?
A: 1.26

Q: What about the Activity (Mus musculus [10]) of the same compound?
A: Active

Q: What about the Activity [11] of the same compound?
A: Active

Q: What about the fraction unbound at 12 h, 21.67 ug/ml [12] of the same compound?
A: 0.149

Q: What about the fraction unbound at 12 h, 37.38 ug/ml [13] of the same compound?
A: 0.491

Q: What about the “Cp(f)” value [14] of the same compound?
A: 6670 ng/mL

Q: What about the Activity (Mus musculus [15]) of the same compound?
A: 4%

Q: What about the Cmax [16] of the same compound?
A: 396 ng/mL

Q: What about the AUC(0-inf) [17] of the same compound?
A: 974 ng·h/mL

Q: What about the Activity [18] of the same compound?
A: 41.7%

Q: What about the Activity (Mus musculus [19]) of the same compound?
A: 86.96%

Q: And the CL/F [20]?
A: 0 mg/(ng/ml)/min

Q: And the Activity (Mus musculus [21])?
A: Active

Q: What about the half-life [22] of the same compound?
A: 2.24 h

Q: What about the “fold change (FC)” value [23] of the same compound?
A: 1.14
